Assay results reported in PMC4685510, “A Cell Biologist’s Field Guide to Aurora Kinase Inhibitors” (Frontiers in Oncology, 2015).

Key:
Assay in all cases: biochemical
Assay type in all cases: biochemical
[1] = target: 363 human kinases (including Aurora A/B/C) (Homo sapiens, UniProt Q15418); conditions: RSK1; for remaining activity at 0.1 µM: 100 nM; for remaining activity at 0.1 µM / remaining activity at 0.5 µM: read-out: % Enzyme Activity (relative to DMSO controls)
From the text: (§1) However, the Aurora A/B selectivity ratios derived from our in vitro and in vivo data can be compared to prioritize inhibitors.

[2] = target: 363 human kinases (including Aurora A/B/C) (Homo sapiens, UniProt P06239); conditions: LCK; for remaining activity at 0.1 µM: 100 nM; for remaining activity at 0.1 µM / remaining activity at 0.5 µM: read-out: % Enzyme Activity (relative to DMSO controls)
From the text: as §1

[3] = target: T1, 363 human kinases (including Aurora A/B/C) (Homo sapiens, UniProt P52564); conditions: MKK6; for remaining activity at 0.1 µM: 100 nM; for remaining activity at 0.1 µM / remaining activity at 0.5 µM: read-out: % Enzyme Activity (relative to DMSO controls)
T1 sequence (P52564 1-334): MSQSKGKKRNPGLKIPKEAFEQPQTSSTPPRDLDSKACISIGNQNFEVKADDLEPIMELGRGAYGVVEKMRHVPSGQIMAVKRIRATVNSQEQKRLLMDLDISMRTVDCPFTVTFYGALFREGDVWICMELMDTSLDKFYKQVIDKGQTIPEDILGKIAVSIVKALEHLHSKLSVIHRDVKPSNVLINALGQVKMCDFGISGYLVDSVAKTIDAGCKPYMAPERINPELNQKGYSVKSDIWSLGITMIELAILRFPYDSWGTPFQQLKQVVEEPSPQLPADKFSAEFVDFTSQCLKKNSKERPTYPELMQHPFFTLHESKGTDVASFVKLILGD
From the text: as §1

[4] = target: T2, 363 human kinases (including Aurora A/B/C) (Homo sapiens, UniProt Q13237); conditions: PKG2/PRKG2; for remaining activity at 0.1 µM: 100 nM; for remaining activity at 0.1 µM / remaining activity at 0.5 µM: read-out: % Enzyme Activity (relative to DMSO controls)
T2 sequence (Q13237 1-762): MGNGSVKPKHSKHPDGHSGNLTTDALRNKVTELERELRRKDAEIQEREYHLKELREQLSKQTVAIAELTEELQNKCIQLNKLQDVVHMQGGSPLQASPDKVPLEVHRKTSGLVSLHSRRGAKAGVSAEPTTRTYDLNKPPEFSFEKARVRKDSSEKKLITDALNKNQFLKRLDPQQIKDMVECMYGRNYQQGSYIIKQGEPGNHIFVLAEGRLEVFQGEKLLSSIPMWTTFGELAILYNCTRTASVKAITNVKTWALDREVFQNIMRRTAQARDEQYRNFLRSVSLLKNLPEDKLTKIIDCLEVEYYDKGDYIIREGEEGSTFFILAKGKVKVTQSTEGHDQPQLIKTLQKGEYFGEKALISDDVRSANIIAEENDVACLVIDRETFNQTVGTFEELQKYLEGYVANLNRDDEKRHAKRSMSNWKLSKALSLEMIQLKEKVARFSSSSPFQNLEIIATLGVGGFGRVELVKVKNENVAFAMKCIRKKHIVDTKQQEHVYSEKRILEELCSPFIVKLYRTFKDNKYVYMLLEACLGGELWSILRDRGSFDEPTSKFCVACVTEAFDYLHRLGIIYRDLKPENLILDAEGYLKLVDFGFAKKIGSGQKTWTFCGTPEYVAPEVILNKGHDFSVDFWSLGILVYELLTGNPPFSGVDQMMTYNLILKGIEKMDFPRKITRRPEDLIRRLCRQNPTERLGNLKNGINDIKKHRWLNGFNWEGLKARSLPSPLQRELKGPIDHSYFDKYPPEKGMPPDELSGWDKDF
From the text: as §1

[5] = target: 363 human kinases (including Aurora A/B/C) (Homo sapiens, UniProt Q9H1R3); conditions: MLCK2/MYLK2; for remaining activity at 0.1 µM: 100 nM; for remaining activity at 0.1 µM / remaining activity at 0.5 µM: read-out: % Enzyme Activity (relative to DMSO controls)
From the text: as §1

[6] = target: 363 human kinases (including Aurora A/B/C) (Homo sapiens, UniProt Q9Y2K2); conditions: SIK3; for remaining activity at 0.1 µM: 100 nM; for remaining activity at 0.1 µM / remaining activity at 0.5 µM: read-out: % Enzyme Activity (relative to DMSO controls)
From the text: as §1

[7] = target: 363 human kinases (including Aurora A/B/C) (Homo sapiens, UniProt O96013); conditions: PAK4; for remaining activity at 0.1 µM: 100 nM; for remaining activity at 0.1 µM / remaining activity at 0.5 µM: read-out: % Enzyme Activity (relative to DMSO controls)
From the text: as §1

[8] = target: 363 human kinases (including Aurora A/B/C) (Homo sapiens, UniProt Q9Y2H1); conditions: STK38L/NDR2; for remaining activity at 0.1 µM: 100 nM; for remaining activity at 0.1 µM / remaining activity at 0.5 µM: read-out: % Enzyme Activity (relative to DMSO controls)
From the text: as §1

[9] = target: 363 human kinases (including Aurora A/B/C) (Homo sapiens, UniProt Q9NQU5); conditions: PAK6; for remaining activity at 0.1 µM: 100 nM; for remaining activity at 0.1 µM / remaining activity at 0.5 µM: read-out: % Enzyme Activity (relative to DMSO controls)
From the text: as §1

[10] = target: 363 human kinases (including Aurora A/B/C) (Homo sapiens, UniProt Q96SB4); conditions: SRPK1; for remaining activity at 0.1 µM: 100 nM; for remaining activity at 0.1 µM / remaining activity at 0.5 µM: read-out: % Enzyme Activity (relative to DMSO controls)
From the text: as §1

[11] = target: T3, 363 human kinases (including Aurora A/B/C) (Homo sapiens, UniProt Q6XUX3); conditions: RIPK5; for remaining activity at 0.1 µM: 100 nM; for remaining activity at 0.1 µM / remaining activity at 0.5 µM: read-out: % Enzyme Activity (relative to DMSO controls)
T3 sequence (Q6XUX3 1-929): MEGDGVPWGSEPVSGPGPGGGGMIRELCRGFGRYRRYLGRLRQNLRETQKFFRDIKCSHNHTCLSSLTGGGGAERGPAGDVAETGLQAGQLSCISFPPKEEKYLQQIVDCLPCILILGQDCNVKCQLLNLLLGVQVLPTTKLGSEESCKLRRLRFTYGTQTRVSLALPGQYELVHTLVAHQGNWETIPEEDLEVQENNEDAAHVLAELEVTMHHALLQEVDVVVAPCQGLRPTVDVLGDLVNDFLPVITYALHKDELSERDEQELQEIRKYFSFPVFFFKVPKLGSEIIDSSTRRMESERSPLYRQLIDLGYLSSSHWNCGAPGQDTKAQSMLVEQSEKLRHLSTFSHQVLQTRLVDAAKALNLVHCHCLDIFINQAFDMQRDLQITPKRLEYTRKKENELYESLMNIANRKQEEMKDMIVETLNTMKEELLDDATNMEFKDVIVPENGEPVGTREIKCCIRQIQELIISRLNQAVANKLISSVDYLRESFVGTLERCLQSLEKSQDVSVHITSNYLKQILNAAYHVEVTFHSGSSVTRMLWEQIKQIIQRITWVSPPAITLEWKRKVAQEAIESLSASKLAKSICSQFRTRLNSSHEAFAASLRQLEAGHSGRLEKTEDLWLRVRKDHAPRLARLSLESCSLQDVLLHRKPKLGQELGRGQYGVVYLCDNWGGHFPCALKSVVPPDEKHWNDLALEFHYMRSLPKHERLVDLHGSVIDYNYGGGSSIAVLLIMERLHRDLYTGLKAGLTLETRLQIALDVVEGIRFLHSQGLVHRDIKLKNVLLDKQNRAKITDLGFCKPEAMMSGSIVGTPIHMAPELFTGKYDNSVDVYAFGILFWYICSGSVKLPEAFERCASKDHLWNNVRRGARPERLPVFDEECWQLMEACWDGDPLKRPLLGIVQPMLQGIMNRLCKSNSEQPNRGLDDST
From the text: as §1

Chain of 363 human kinases (including Aurora A/B/C) (Homo sapiens, UniProt Q9Y2K2) (Q9Y2K2 whole entry): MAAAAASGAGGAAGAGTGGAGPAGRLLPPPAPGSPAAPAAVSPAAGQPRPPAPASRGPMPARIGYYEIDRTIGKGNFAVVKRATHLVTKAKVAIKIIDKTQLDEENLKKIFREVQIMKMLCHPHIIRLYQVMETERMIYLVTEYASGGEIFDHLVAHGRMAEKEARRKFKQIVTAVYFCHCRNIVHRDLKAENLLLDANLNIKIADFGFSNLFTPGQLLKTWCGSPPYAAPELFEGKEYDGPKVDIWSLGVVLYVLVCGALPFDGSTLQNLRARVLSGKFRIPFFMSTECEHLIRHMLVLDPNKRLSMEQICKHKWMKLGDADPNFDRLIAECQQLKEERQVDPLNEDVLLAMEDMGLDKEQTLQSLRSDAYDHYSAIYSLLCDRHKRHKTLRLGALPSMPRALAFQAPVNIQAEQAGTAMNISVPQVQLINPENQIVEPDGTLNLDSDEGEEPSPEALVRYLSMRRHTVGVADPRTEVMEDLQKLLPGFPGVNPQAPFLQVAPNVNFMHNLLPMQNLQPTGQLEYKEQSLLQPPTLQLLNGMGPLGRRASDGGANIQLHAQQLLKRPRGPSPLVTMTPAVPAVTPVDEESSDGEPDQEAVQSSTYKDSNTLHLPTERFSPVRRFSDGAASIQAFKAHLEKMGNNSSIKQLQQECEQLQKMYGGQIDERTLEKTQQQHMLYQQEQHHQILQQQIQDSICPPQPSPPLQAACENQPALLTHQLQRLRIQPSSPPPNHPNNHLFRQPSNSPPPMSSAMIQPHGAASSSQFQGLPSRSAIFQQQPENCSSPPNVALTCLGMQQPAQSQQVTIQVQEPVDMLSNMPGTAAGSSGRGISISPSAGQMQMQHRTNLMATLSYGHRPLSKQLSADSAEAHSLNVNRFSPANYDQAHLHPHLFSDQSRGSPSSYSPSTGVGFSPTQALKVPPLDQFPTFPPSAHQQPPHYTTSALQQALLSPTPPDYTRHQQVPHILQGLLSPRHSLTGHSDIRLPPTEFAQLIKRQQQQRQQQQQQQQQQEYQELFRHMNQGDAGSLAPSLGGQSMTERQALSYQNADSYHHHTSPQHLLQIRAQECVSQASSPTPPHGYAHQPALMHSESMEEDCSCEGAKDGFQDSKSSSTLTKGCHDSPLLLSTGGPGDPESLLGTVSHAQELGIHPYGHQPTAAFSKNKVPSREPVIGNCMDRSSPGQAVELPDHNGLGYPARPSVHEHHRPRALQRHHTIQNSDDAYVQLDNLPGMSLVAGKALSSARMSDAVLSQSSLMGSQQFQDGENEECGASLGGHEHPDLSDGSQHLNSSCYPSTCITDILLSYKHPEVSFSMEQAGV
Chain of 363 human kinases (including Aurora A/B/C) (Homo sapiens, UniProt Q9H1R3) (Q9H1R3 whole entry): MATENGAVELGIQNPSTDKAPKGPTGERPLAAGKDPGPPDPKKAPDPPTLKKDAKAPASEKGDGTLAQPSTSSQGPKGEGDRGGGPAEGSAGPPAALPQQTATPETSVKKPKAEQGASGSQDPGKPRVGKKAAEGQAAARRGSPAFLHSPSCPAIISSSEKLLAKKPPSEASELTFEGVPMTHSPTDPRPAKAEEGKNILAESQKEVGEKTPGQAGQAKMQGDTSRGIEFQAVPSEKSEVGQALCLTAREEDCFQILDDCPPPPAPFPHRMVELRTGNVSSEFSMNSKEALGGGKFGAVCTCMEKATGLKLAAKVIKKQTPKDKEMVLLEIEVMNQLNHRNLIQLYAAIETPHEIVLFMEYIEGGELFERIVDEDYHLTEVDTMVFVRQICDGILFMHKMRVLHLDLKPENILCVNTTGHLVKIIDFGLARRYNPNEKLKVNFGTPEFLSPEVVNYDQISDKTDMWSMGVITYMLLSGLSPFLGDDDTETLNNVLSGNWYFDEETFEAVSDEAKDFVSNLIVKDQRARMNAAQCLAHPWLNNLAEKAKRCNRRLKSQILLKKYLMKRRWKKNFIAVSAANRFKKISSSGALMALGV
Chain of 363 human kinases (including Aurora A/B/C) (Homo sapiens, UniProt Q96SB4) (Q96SB4 whole entry): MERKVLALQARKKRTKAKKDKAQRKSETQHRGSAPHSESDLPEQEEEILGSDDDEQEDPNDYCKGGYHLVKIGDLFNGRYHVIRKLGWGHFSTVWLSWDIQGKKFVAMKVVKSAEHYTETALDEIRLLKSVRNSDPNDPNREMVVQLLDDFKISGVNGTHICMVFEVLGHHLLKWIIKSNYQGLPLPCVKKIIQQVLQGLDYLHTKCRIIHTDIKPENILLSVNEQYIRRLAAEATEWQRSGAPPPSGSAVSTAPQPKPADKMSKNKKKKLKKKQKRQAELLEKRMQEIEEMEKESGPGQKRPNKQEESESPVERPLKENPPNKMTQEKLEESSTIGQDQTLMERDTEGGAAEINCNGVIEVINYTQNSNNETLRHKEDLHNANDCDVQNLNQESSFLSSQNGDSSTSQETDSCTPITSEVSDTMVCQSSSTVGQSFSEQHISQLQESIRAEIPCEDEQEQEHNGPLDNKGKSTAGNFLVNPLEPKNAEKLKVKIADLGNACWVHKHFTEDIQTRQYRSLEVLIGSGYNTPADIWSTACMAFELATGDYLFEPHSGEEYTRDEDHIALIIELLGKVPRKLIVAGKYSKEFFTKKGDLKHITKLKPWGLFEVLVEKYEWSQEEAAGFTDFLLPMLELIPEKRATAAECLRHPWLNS
Chain of 363 human kinases (including Aurora A/B/C) (Homo sapiens, UniProt P06239) (P06239 whole entry): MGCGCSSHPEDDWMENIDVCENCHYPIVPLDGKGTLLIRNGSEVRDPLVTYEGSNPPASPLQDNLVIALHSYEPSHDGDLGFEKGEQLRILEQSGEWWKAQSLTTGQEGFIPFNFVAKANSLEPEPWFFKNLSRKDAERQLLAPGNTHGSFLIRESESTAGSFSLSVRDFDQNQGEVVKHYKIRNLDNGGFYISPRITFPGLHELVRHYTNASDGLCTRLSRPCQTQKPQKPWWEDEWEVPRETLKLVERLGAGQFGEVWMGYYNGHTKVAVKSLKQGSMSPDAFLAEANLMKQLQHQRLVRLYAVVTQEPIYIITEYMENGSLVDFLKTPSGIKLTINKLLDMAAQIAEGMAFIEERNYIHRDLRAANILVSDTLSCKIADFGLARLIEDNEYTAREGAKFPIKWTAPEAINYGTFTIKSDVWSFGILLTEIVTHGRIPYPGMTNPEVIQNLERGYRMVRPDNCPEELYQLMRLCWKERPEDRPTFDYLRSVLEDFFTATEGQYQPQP
Chain of 363 human kinases (including Aurora A/B/C) (Homo sapiens, UniProt Q15418) (Q15418 whole entry): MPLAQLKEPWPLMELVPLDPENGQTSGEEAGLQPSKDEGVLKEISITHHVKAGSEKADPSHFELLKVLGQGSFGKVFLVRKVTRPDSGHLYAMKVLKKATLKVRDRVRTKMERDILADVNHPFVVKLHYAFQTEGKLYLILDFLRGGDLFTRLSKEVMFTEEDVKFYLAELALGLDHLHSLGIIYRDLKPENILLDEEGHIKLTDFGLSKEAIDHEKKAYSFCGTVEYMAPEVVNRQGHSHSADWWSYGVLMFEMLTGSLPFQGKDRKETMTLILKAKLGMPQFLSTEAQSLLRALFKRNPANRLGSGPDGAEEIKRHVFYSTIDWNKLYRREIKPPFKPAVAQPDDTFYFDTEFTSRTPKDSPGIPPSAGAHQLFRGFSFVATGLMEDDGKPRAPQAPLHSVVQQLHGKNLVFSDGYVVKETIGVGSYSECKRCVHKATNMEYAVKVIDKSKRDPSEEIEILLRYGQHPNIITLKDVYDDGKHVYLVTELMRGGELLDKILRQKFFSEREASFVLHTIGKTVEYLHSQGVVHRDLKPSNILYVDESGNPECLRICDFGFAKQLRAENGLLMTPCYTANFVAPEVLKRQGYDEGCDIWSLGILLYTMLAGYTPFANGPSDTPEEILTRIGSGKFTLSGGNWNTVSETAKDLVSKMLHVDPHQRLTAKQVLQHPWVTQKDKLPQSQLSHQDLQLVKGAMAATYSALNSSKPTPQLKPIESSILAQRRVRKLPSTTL
Chain of 363 human kinases (including Aurora A/B/C) (Homo sapiens, UniProt O96013) (O96013 whole entry): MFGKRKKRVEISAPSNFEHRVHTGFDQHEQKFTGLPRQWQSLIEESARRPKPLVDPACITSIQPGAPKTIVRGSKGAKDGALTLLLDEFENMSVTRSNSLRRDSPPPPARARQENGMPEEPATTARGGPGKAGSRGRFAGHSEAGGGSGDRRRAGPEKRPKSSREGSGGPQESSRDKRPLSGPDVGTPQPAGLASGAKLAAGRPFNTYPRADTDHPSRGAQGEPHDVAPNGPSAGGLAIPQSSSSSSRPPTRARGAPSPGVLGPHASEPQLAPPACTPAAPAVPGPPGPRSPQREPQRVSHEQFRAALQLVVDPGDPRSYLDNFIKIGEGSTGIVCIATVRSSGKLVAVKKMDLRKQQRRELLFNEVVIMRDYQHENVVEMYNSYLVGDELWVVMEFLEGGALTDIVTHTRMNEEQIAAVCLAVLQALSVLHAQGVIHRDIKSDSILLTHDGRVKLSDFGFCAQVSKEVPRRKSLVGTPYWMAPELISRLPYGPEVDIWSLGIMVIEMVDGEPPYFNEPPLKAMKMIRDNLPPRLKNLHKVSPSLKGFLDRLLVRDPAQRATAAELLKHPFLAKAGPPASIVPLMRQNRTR
Chain of 363 human kinases (including Aurora A/B/C) (Homo sapiens, UniProt Q9Y2H1) (Q9Y2H1 whole entry): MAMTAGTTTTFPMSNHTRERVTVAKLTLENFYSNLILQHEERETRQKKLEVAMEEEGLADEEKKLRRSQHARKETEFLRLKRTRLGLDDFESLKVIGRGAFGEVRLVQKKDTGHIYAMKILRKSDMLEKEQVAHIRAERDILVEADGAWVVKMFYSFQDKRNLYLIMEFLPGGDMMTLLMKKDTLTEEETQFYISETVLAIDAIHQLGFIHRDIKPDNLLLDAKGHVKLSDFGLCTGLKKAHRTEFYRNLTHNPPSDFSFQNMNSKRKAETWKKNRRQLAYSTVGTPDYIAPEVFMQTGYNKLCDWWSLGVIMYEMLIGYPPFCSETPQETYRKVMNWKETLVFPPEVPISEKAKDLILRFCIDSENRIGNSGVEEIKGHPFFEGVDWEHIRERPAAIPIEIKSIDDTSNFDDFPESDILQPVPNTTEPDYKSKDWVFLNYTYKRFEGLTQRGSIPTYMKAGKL

Row | Structure (SMILES) | remaining activity at 0.1 µM [1] [%] | remaining activity at 0.1 µM [2] [%] | remaining activity at 0.1 µM [3] [%] | remaining activity at 0.1 µM [4] [%] | remaining activity at 0.1 µM [5] [%] | remaining activity at 0.1 µM [6] [%] | remaining activity at 0.1 µM [7] [%] | remaining activity at 0.1 µM [8] [%] | remaining activity at 0.1 µM [9] [%] | remaining activity at 0.1 µM [10] [%] | remaining activity at 0.1 µM [11] [%] | remaining activity at 0.5 µM ([1]; 500 nM) [%] | remaining activity at 0.5 µM ([2]; 500 nM) [%] | remaining activity at 0.5 µM ([3]; 500 nM) [%] | remaining activity at 0.5 µM ([4]; 500 nM) [%] | remaining activity at 0.5 µM ([5]; 500 nM) [%] | remaining activity at 0.5 µM ([6]; 500 nM) [%] | remaining activity at 0.5 µM ([7]; 500 nM) [%] | remaining activity at 0.5 µM ([8]; 500 nM) [%] | remaining activity at 0.5 µM ([9]; 500 nM) [%] | other results
1 | CCn1cc(-c2ccnc3[nH]c(-c4cccc(CN(C)C)c4)cc23)c(-c2ccc(NC(=O)N(C)C)cc2)n1 [GSK1070916] | 90 | 72.8 | 85.3 | 97.2 | 96.2 | 87.8 | 106 | 95.7 | 103 | 103 | 114 | – | – | – | – | – | – | – | – | – | –
2 | O=C(c1cccc(Cl)c1F)N1CCN(Cc2cccc(Nc3nccs3)n2)CC1 [MK-8745] | – | – | – | – | – | – | – | – | – | – | – | 95.8 | 53 | 68 | 95.3 | 94.3 | 93.5 | 95.9 | 98.4 | 90.3 | % Enzyme Activity (relative to DMSO controls) ([1]; 500 nM): 93.60%; % Enzyme Activity (relative to DMSO controls) ([2]; 500 nM): 50.49%; % Enzyme Activity (relative to DMSO controls) ([3]; 500 nM): 66.22%; % Enzyme Activity (relative to DMSO controls) ([4]; 500 nM): 95.25%; % Enzyme Activity (relative to DMSO controls) ([5]; 500 nM): 94.16%; % Enzyme Activity (relative to DMSO controls) ([6]; 500 nM): 91.26%; % Enzyme Activity (relative to DMSO controls) ([7]; 500 nM): 92.31%; % Enzyme Activity (relative to DMSO controls) ([8]; 500 nM): 96.64%; % Enzyme Activity (relative to DMSO controls) ([9]; 500 nM): 89.27%; % Enzyme Activity (relative to DMSO controls) ([10]; 500 nM): 99.92%; remaining activity at 0.5 µM ([10]; 500 nM): 101%; % Enzyme Activity (relative to DMSO controls) ([11]; 500 nM): 103.95%; remaining activity at 0.5 µM ([11]; 500 nM): 105%
3 | O=C(O)[C@]1(Cc2cccc(Nc3nccs3)n2)CC[C@@H](Oc2cccc(Cl)c2F)CC1 [MK-5108] | 99.1 | 62.3 | 95.4 | 106 | 102 | 97.3 | 92.8 | 99.6 | 99.8 | 101 | 96.6 | 91.2 | 16.6 | 76.7 | 97.3 | 97.8 | 103 | 89.8 | 97.8 | 97 | remaining activity at 0.5 µM ([10]; 500 nM): 95.5%; remaining activity at 0.5 µM ([11]; 500 nM): 123%
